Earlier results in US11154558B2, “Prevention of atherosclerotic events with direct factor Xa inhibitors” (Adams Pharmaceuticals LLC, priority 2016, dated 2021).
Where two headings read alike, the source gives them in different places.

Legend:
hERG = hERG (Homo sapiens, UniProt Q12809)
[1] = human, in vivo
[2] = human, in vivo; remark: listed apart in the source
[3] = test system: atherosclerotic plaques in ApoE^−/−mice
[4] = usual dose about 15 mg to about 20 mg per day
[5] = ApoE−/− mice treated with rivaroxaban

Chain of hERG (Q12809 whole entry): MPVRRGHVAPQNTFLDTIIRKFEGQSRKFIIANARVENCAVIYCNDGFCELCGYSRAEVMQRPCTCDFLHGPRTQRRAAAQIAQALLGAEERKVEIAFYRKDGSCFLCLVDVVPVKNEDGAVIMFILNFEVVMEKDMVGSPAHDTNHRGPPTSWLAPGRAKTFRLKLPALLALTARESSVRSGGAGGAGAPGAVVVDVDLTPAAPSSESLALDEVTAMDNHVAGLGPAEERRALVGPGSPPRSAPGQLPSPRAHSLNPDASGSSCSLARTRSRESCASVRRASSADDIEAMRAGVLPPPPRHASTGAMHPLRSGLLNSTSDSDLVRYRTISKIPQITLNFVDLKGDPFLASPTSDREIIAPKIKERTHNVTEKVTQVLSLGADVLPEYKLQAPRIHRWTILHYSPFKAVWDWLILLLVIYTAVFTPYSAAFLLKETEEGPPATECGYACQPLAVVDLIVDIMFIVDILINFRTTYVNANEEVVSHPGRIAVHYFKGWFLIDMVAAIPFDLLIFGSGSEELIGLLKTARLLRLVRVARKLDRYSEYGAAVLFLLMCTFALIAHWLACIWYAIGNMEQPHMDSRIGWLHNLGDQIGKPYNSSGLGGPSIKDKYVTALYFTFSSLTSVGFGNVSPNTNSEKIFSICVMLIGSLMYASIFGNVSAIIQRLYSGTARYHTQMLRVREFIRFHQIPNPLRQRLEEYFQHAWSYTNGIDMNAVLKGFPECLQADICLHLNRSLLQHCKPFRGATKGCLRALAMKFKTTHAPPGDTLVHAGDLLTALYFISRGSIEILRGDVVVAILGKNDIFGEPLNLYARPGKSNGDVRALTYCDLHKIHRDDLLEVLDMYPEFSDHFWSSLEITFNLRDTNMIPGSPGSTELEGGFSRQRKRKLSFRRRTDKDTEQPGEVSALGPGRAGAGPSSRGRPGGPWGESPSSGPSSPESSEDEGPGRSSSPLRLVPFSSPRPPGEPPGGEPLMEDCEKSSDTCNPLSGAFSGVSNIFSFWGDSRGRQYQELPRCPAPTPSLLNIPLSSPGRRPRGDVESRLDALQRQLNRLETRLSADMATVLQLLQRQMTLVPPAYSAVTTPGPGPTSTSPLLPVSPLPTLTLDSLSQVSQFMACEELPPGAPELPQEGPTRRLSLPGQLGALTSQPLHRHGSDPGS

| SMILES | hERG affinity (hERG) | direct effect on platelet aggregation (platelet aggregation) | prevalence of major bleeding versus placebo [1] | patients affected by bleeding (major bleeding events) [2] [%] | accumulation of macrophages in plaques [3, 5] | atherosclerotic plaque stability and plaque progression [3, 5] | collagen contents in atherosclerotic plaques [3, 5] | expression of matrix metallopeptidase-9 (MMP-9) [3, 5] | lipid deposition in plaques [3, 5] | plasma levels of FXa or thrombin antithrombin ([3]; ApoE−/− mice, administration of rivaroxaban) | risk of a major bleeding event ([4]; one reported study) [%] | risk of a major bleeding event ([4]; second study) [%] |
| --- | --- | --- | --- | --- | --- | --- | --- | --- | --- | --- | --- | --- |
| COc1ccc(NC(=O)c2ccc(C(=N)N(C)C)cc2)c(C(=O)Nc2ccc(Cl)cn2)c1 [Betrixaban] | low hERG affinity | – | – | – | – | – | – | – | – | – | – | – |
| COc1ccc(-n2nc(C(N)=O)c3c2C(=O)N(c2ccc(N4CCCCC4=O)cc2)CC3)cc1 [apixaban] | – | no direct effect on platelet aggregation | no increased prevalence of major bleeding | 1.7 | – | – | – | – | – | – | – | – |
| O=C(NC[C@H]1CN(c2ccc(N3CCOCC3=O)cc2)C(=O)O1)c1ccc(Cl)s1 [rivaroxaban] | – | no direct effect on platelet aggregation | – | – | reduced accumulation | stabilized atherosclerotic plaques and attenuated plaque progression | increased collagen contents | decreased expression | decreased lipid deposition | did not change | 4.3 | 1.7 |
